# Values quoted from earlier work, collected in US20140032198A1, “APPLICATION OF MULTIDIMENSIONAL MATRIX FOR DRUG MOLECULAS DESIGN AND THE METHODOLOGIES FOR DRUG MOLECULAR DESIGN” (priority 2011, published 2014).
# Settings: qualitative comparison within captopril series, historical data
row,Compound,toxicity and side effects profiles
1,CCC(=O)O[C@@H](O[P@](=O)(CCCCc1ccccc1)CC(=O)N1C[C@H](C2CCCCC2)C[C@H]1C(=O)O)C(C)C [Fosinopril],relatively weaker
2,CCOC(=O)[C@H](CCc1ccccc1)N[C@@H](C)C(=O)N1Cc2ccccc2C[C@H]1C(=O)O [Quinapril],relatively weaker
3,Benazepril,relatively weaker
4,Lisinopril,relatively weaker
5,Ramipril,best toxicity and side effects profiles
